Data on four molecules can be found in article PMC8151276, “An Integrated Approach toward NanoBRET Tracers for Analysis of GPCR Ligand Engagement” (Molecules, 2021).

One assay concerns the target T1, NPFFR2 (Homo sapiens, UniProt Q9Y5X5).
T1 construct: purchased Promega (in-house HiBiT-GPCR construct library, NanoBRET)
Put plainly: NanoBRET screen HiBiT-NPFFR2 in HEK293. The assay is classed as binding. As for the experimental part: (§1) Each tracer candidate was screened across the entire library of HiBiT-GPCR constructs using NanoBRET as the detection modality. As depicted in Figure 4A, the specificity of interactions was evaluated through decrease in BRET due to competitive displacement of a bound tracer by excess parental compound. Each tracer was analyzed for binding to each HiBiT-GPCR fusion in the absence and in the presence of competing parental compound. Briefly, HEK293 cells were transfected with HiBiT-GPCR constructs diluted into promoterless DNA to reduce expression and maximize translocation to the cell surface. Each tracer candidate was then screened at concentrations of 1 μM and 0.1 μM across cells expressing these fusions. Cells were treated for 1.5 h with tracer either alone or in the presence of 20 μM competing parental compound (i.e., control). BRET was measured upon addition of purified LgBiT and subsequent complementation with HiBiT genetically fused to a GPCR. The specificity of interactions was assessed through a decrease in BRET signal due to competitive displacement of the bound tracer. To further gauge the robustness of these interactions, the fold response over the control (i.e., BRETtracer/BRETcontrol) was calculated. We chose a 1.5-fold response, which translates to ≥7-fold signal over noise as the minimal threshold required to score an interaction as positive. […]. Below we highlight the screening results obtained for our exemplary fluorescent tracers based on Clozapine, Amitriptyline and AZD1283.
(§2) HiBiT-GPCR DNA constructs were diluted in 10 mM Tris pH 8 to a final concentration of 0.01 μg/μL, arrayed in 96-well plates and stored at −20 °C. For transfection, HEK293 cells were suspended in Opti-MEM (without phenol red) supplemented with 2% fetal bovine serum (Seradigm) and 100 units/mL penicillin–streptomycin (Gibco) at a final concentration of 220,000 cells/mL and dispensed into white 96-well plates at 90 μL/well. Subsequent transfections and screens were carried using an Agilent Bravo Automated Liquid Handling Platform. First, the 96-well HiBiT DNA arrays were diluted 25-fold in Opti-MEM (without serum or phenol red) to a final concentration of 0.0004 μg/μL and 20 μL of the diluted DNAs were transferred into new 96-well plates. Next, promoterless carrier DNA (1 μg/μL) was diluted 25-fold (0.04 μg/μL) and then dispensed into the diluted arrays at 20 μL/well. Following brief mixing, Viafect transfection reagent (Promega) diluted 16-fold into Opti-MEM was dispensed into the plates at 40 μL/well. After mixing by pipetting, plates were incubated for 10 min on the pipetting station deck. The DNA-transfection reagent complexes were then added to plates containing cells. To facilitate the screen, 10 μL of DNA-transfection reagent complexes were added in duplicates to the top 4 and bottom 4 rows, resulting in two identical 48-well arrays per plate. Plates with transfected cells were incubated for 18–20 h at 37 °C/5% CO2. A screen of each tracer across the entire library using two different concentrations requires duplicate plates of transfected cells. Depending on the number of tracers being screened, transfections can be scaled up using the same ratios. The next day, for each tracer, four 20× screening solutions in tracer dilution buffer (Promega) were prepared: two duplicates at final concentration of 20 μM and two duplicates at a final concentration of 2 μM. A competing unmodified compound was added to one of each duplicate at a final concentration of 400 μM. The four resulting solutions were diluted 4-fold in Opti-MEM without serum or phenol red to generate 5× solutions (5 µM and 0.5 µM tracer +/− 100 μM competing compound). To screen the library, a BioTek MultiFlo FX liquid dispenser was used to dispense 22.5 µL of tracer solution to the top 4 rows and 22.5 µL tracer + competing compound solution to the 4 bottom rows. Plates were briefly mixed on an orbital shaker and incubated for 1.5 h at room temperature. […]
For orientation: Bioluminescence resonance energy transfer reports proximity on the nanometre scale.

The next assay deals with T2, ADORA3 (Homo sapiens, UniProt P0DMS8).
T2 construct: purchased Promega (in-house HiBiT-GPCR construct library, NanoBRET)
T2 sequence (P0DMS8 1-318): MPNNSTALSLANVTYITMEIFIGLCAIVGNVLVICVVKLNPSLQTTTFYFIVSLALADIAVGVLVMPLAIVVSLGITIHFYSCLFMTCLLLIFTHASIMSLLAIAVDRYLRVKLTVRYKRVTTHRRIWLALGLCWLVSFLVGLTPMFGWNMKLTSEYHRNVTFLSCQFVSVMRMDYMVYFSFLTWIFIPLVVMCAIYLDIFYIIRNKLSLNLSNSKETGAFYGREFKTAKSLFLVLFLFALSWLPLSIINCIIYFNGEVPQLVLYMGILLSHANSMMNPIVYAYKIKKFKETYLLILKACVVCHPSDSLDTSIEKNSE
The experiment in a line: NanoBRET screen HiBiT-ADORA3 in HEK293. The assay is classed as binding. On the procedure:
as §1, §2

T1 sequence (Q9Y5X5 whole entry): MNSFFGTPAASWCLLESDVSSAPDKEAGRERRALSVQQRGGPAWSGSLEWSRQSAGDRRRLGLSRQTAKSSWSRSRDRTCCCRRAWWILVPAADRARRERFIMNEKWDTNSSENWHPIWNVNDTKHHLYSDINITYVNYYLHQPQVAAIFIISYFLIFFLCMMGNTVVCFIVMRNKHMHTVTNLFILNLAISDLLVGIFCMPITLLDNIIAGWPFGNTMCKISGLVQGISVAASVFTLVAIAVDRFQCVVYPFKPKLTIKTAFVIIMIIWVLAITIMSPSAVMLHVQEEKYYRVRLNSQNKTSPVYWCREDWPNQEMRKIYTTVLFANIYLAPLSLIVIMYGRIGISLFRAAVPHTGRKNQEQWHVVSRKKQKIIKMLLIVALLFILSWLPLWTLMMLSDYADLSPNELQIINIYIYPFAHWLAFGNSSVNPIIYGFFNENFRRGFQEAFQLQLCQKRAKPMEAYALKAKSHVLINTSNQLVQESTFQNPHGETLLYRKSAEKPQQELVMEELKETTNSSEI

As to `CN(C)CCC=C1c2ccccc2CCc2ccc(C(=O)NCCNC(=O)CCOCCOCCOCCOCCNC(=O)CCc3ccc4n3[B-](F)(F)[N+]3=C(c5ccc[nH]5)C=CC3=C4)cc21` [Amitriptyline-b-2-NB590], the “NanoBRET Fold Response” value came out at 1.00 on NPFFR2 (tracer at 0.1μM); 1.03 at NPFFR2 (tracer at 1μM); 0.87 at ADORA3 (tracer at 0.1μM, listed as amitriptyline-b-2-NB590); 0.66 at ADORA3 (tracer at 1μM, listed as amitriptyline-b-2-NB590).
Regarding `O=C(CCOCCOCCOCCOCCNC(=O)CCc1ccc2n1[B-](F)(F)[N+]1=C(c3ccc[nH]3)C=CC1=C2)NCCCN1CCN(C2=Nc3cc(Cl)ccc3Nc3ccccc32)CC1` [Clozapine-a-2-NB590], the “NanoBRET Fold Response” value at NPFFR2 (NPFFR2, 0.1μM tracer) is recorded as 1.00; at NPFFR2 (NPFFR2, 1μM tracer) it was 0.97; at ADORA3 (ADORA3, 0.1μM tracer), 1.04; on ADORA3 (ADORA3, 1μM tracer), 0.83.
For the molecule `CN1CCN(C2=Nc3cc(Cl)ccc3Nc3ccc(CNC(=O)CCOCCOCCOCCOCCNC(=O)CCc4ccc5n4[B-](F)(F)[N+]4=C(c6ccc[nH]6)C=CC4=C5)cc32)CC1` [Clozapine-b-2-NB590], the “NanoBRET Fold Response” value is on record as 1.02 on NPFFR2 (NPFFR2, 0.1μM tracer); 1.00 on NPFFR2 (NPFFR2, 1μM tracer); 1.02 at ADORA3 (ADORA3, 0.1μM tracer); 1.08 on ADORA3 (ADORA3, 1μM tracer).
Consider `Cc1nc2n(c(=O)c1CCN1CCC(c3noc4cc(F)ccc34)CC1)CCCC2OC(=O)NCCOCCOCCOCCOCCNC(=O)CCc1ccc2n1[B-](F)(F)[N+]1=C(c3ccc[nH]3)C=CC1=C2` (stereo not shown) [Risperidone-2-NB590], for which the “NanoBRET Fold Response” value on NPFFR2 (NPFFR2, tracer 0.1μM) was found to be 1.02; at NPFFR2 (NPFFR2, tracer 1μM), 0.98; at ADORA3 (ADORA3, tracer 0.1μM), 1.03; on ADORA3 (ADORA3, tracer 1μM) it was 0.87.
